In US20070207992A1, “Geldanamycin derivatives and method of use thereof” (Board of Trustees of Michigan State University, priority 2006, published 2007) one finds IC50 and IC90 data, which are given here for 9 compounds.

Where a name gives a salt, the structure may show the parent alone. Read-outs that look alike come from different tables or passages of the source.

The subject of one assay is P. falciparum W2. Nature of the assay: Testing of compounds against P. falciparum strain W2. To be noted: Plasmodium falciparum. The class given is cell-based. The source says:
(§1) Parasitic Lethality: The geldanamycin derivatives were subjected to further testing for lethality to the P. falciparum parasite itself. IC50 values were then obtained as illustrated in Table 1 in Example 3. Samples of the literature compound 17-N-allyl-17-demethoxygeldanamycin was synthesized and tested for killing of parasites. Preferably the drugs are selective for parasitic hsp90 homologs over human hsp90 and have minimal human toxicity. Geldanamycin derivatives of this type have potential for being novel drugs in the treatment of parasitic diseases. The medical community will be able to use these new anti-infective medications alone or in combination with other anti-infective medications. For example, the geldanamycin derivatives of the present invention can be used in combination with chloroquine, since geldanamycin and chloroquine are synergistic inhibitors of Plasmodium falciparum growth as described in Kumar et al. Malaria Journal 2:30 (2003).
(§2) Both parasite strains are chloroquine and pyrimethamine resistant and TM91C235 is also mefloquine resistant.

Another assay has as its system P. falciparum TM91C235. Nature of the assay: Testing of compounds against P. falciparum strain TM91C235. Type of assay: cell-based. To be noted: Plasmodium falciparum.
From the text: as §1, §2

The mark [1] stands for this setting: target strain W2 (chloroquine and pyrimethamine resistant), read-out: IC50.
The mark [2] stands for this setting: target strain W2 (chloroquine and pyrimethamine resistant), read-out: IC90.
The mark [3] stands for this setting: target strain TM91C235 (chloroquine, pyrimethamine and mefloquine resistant), read-out: IC50.
Where [4] appears, read: target strain TM91C235 (chloroquine, pyrimethamine and mefloquine resistant), read-out: IC90.

Broadly, the IC50 is the concentration that gives 50% inhibition. The IC90 is the point of the concentration-response curve where the effect stands at 90%.

`CCN(CC)CCCC(C)Nc1ccnc2cc(Cl)ccc12` (stereo not drawn) [Chloroquine, reference compound]: in the assay on P. falciparum W2 (W2), the concentration for half-maximal inhibition (IC50) was determined as 0.0297 µg/mL and the IC90 is 0.0378 µg/mL. In the assay with P. falciparum TM91C235, the IC50 turned out to be 0.125 µg/mL and the 90% effect concentration (IC90) is 0.16 µg/mL.

Take `CO[C@H]1/C=C\C=C(/C)C(=O)NC2=CC(=O)C(N3CCC3)=C(C[C@@H](C)C[C@H](OC)[C@H](OC(=O)CCCN)[C@@H](C)/C=C(\C)[C@@H]1OC(N)=O)C2=O` [Compound A, 11-O-(4-Aminobutyryl)-17-(1-azetidinyl)-17-demethoxygeldanamycin trifluoroacetate]: the half-maximal inhibitory concentration (IC50) in the assay with P. falciparum W2 (setting [1]) is 0.65 µg/mL; with P. falciparum TM91C235 (setting [3]) it was 1.03 µg/mL. Moreover, the concentration for an effect of 90% (IC90) with P. falciparum W2 (setting [2]) is 1.79 µg/mL; in the assay on P. falciparum TM91C235 (setting [4]), 2.53 µg/mL.

Take `CCCC(=O)O[C@H]1/C(C)=C/[C@H](C)[C@@H](O)[C@@H](OC)C[C@H](C)CC2=C(N3CCC3)C(=O)C=C(NC(=O)/C(C)=C/C=C\[C@@H]1OC)C2=O` [Compound B, 17-(1-Azetidinyl)-7-butyryl-7-decarbamyl-17-demethoxygeldanamycin]: the IC50 was found to be 0.786 µg/mL in the assay with P. falciparum W2 (setting [1]) and 2.71 µg/mL in the assay with P. falciparum TM91C235 (setting [3]). For the same compound, the IC90 in the assay on P. falciparum W2 (setting [2]) was 2.73 µg/mL; in the assay with P. falciparum TM91C235 (setting [4]), 4.02 µg/mL.

For the compound `CO[C@H]1/C=C\C=C(/C)C(=O)NC2=CC(=O)C(N3CCC3)=C(C[C@@H](C)C[C@H](OC)[C@H](O)[C@@H](C)/C=C(\C)[C@@H]1OC(=O)C1CC1)C2=O` [Compound C, 17-(1-Azetidinyl)-7-(cyclopropanyl)carbonyl-7-decarbamyl-17-demethoxygeldanamycin], the IC50 in the assay with P. falciparum W2 (setting [1]) came out at 0.875 µg/mL; in the assay with P. falciparum TM91C235 (setting [3]), 2.64 µg/mL. For the same compound, the figures for the IC90 in the assay with P. falciparum W2 (setting [2]) and with P. falciparum TM91C235 (setting [4]) were 3.06 µg/mL and 3.95 µg/mL, respectively.

For `CO[C@H]1/C=C\C=C(/C)C(=O)NC2=CC(=O)C(N3CCC3)=C(C[C@@H](C)C[C@H](OC)[C@H](O)[C@@H](C)/C=C(\C)[C@@H]1O)C2=O` [Compound D, 17-(1-Azetidinyl)-7-decarbamyl-17-demethoxygeldanamycin], the half-inhibitory concentration (IC50) was determined as 0.958 µg/mL in the assay on P. falciparum W2 (setting [1]) and 4.04 µg/mL in the assay with P. falciparum TM91C235 (setting [3]). In addition, the concentration for an effect of 90% (IC90) in the assay with P. falciparum W2 (setting [2]) was determined as 6.18 µg/mL; in the assay with P. falciparum TM91C235 (setting [4]) it was 8.41 µg/mL.

On to `CO[C@H]1/C=C\C=C(/C)C(=O)NC2=CC(=O)C(N3CCC3)=C(C[C@@H](C)C[C@H](OC)[C@H](O)[C@@H](C)/C=C(\C)[C@@H]1OC(=O)c1ccccc1)C2=O` [Compound E, 17-(1-Azetidinyl)-7-benzoyl-7-decarbamyl-17-demethoxygeldanamycin], for which, in the assay with P. falciparum W2 (W2), the half-maximal inhibitory concentration (IC50) is 1.26 µg/mL and the concentration for an effect of 90% (IC90) turned out to be 5.43 µg/mL. Moreover, in the assay on P. falciparum TM91C235, the IC50 is 4.29 µg/mL and the IC90 amounted to 6.07 µg/mL.

For the compound `CCC(=O)O[C@H]1/C(C)=C/[C@H](C)[C@@H](O)[C@@H](OC)C[C@H](C)CC2=C(N3CCC3)C(=O)C=C(NC(=O)/C(C)=C/C=C\[C@@H]1OC)C2=O` [Compound F, 17-(1-Azetidinyl)-7-decarbamyl-17-demethoxy-7-propionylgeldanamycin], the half-maximal inhibitory concentration (IC50) with P. falciparum W2 (setting [1]) was found to be 0.909 µg/mL; in the assay with P. falciparum TM91C235 (setting [3]) it was 3.03 µg/mL. Also, the IC90 turned out to be 3.74 µg/mL in the assay with P. falciparum W2 (setting [2]) and 5.54 µg/mL in the assay with P. falciparum TM91C235 (setting [4]).

Turning to `CO[C@H]1/C=C\C=C(/C)C(=O)NC2=CC(=O)C(N3CCC3)=C(C[C@@H](C)C[C@H](OC)[C@H](O)[C@@H](C)/C=C(\C)[C@@H]1OC(N)=O)C2=O` [Compound G, 17-(1-Azetidinyl)-17-demethoxygeldanamycin], the figures for the half-maximal inhibitory concentration (IC50) in the assay with P. falciparum W2 (setting [1]) and in the assay with P. falciparum TM91C235 (setting [3]) were 0.0683 µg/mL and 0.169 µg/mL, respectively. For the same compound, the IC90 in the assay with P. falciparum W2 (setting [2]) stood at 0.208 µg/mL; with P. falciparum TM91C235 (setting [4]), 0.346 µg/mL.

On to `OC(c1cc(C(F)(F)F)nc2c(C(F)(F)F)cccc12)C1CCCCN1` (stereo not drawn) [Mefloquine, reference compound], for which the IC50 with P. falciparum W2 (setting [1]) stood at 0.00163 µg/mL; with P. falciparum TM91C235 (setting [3]), 0.0138 µg/mL. The values for the IC90 in the assay on P. falciparum W2 (setting [2]) and with P. falciparum TM91C235 (setting [4]) were 0.00409 µg/mL and 0.0291 µg/mL, respectively.
